Assay results as given in EP0571390B1, “THE DELAY, PREVENTION AND/OR REVERSAL OF CELL SENESCENCE” (priority 1990, dated 1992).

Assays:
MRC-5 cells [1] = assay: Transfer of senescent MRC-5 cells from normal medium to carnosine medium at PD level 55; format: cell-based, human
Description: (§1) Cells were grown in Dulbecco's modification of Eagles' Minimal Essential Medium, with 10% fetal calf serum. When cells became confluent and ceased division, they were harvested with trypsin - versene, and dispersed to form a suspension of single cells which was counted with a Coulter Counter. Depending on the cell yield the culture was split in a ratio of 1:2, 1:4, or 1:8. These split ratios correspond approximately to one, two or three cell population doublings when the new cultures become confluent. The exact number of population doublings is calculated from the cell yield at each sub-culture.
Remarkably, these cells are continuing to grow after 400 days (Figure 8), whereas cells grown continuously in carnosine died out after 139 days. Thus it appears that transfer of senescent cells to carnosine can reverse the senescent phenotype and allow extended growth of cells with a near normal morphology (Figures 10, 11 and 12).

MRC-5 cells [2] = assay: Longevity experiment, MRC-5 cells grown continuously in medium supplemented with carnosine; format: cell-based, human; conditions: for longevity: continuous, controls ceased growth at 57 and 61 PDs
Description: as §1
MRC-5 is a very well characterised fibroblast strain derived from foetal lung tissue. Early passage cultures were obtained from the National Institute for Biological Standards and Control, South Mimms, Herts, U.K. Longevity experiments were set up using normal medium and medium supplemented with 20 and 30mM carnosine (medium was the same as for RR cells above). […] The control cells became senescent at the expected time, namely after about 50 - 55 PDs, and they ceased growth at 57 and 61 PDs. […] It should be noted that the PD level is a logarithmic measure of growth, so an increase of 10 PDs represents an increase in cell mass of 2^10, or x 1,000.

[3] = system: RR cells (human foreskin fibroblasts); assay: Growth and lifespan of RR cells passaged in medium with carnosine; format: cell-based; conditions: for fibroblast morphology: after many population doublings; for time still growing: continuous
Description: as §1
Initially, human foreskin fibroblasts were obtained from Dr Roger Reddel (Children's Medical Research Foundation) at passage 5, flasks were set up with differing concentrations of carnosine (10mM, 20mM, 30mM and 50mM) together with control cultures. Each of the cultures were passaged in the same medium.

[4] = transferred at PD level 55 to 20mM carnosine
[5] = transferred at PD level 55 to 30mM carnosine

Structure (SMILES): NCCC(=O)N[C@@H](Cc1c[nH]cn1)C(=O)O [carnosine, β-alanyl-L-histidine]
- PDs reached after transfer (MRC-5 cells [1]; 20mM carnosine, 146 days after transfer (Figure 11)): 64 PDs
- PDs reached after transfer (MRC-5 cells [1]; 30mM carnosine, 146 days after transfer (Figure 12)): 63 PDs
- effect in increasing cell yield (MRC-5 cells [1]; cells transferred from normal medium to 30mM carnosine medium (Figure 9)): particularly striking
- phenotype after transfer (MRC-5 cells [1]; [4]): continued to grow slowly, but with a rejuvenated phenotype
- time continuing to grow (MRC-5 cells [1]; [4]): > 400 days
- phenotype after transfer (MRC-5 cells [1]; [5]): continued to grow slowly, but with a rejuvenated phenotype
- time continuing to grow (MRC-5 cells [1]; [5]): > 400 days
- PD level of cells growing continuously (MRC-5 cells [2]; 20mM carnosine (Figure 7)): 67 PD
- growth rate in the initial stage (MRC-5 cells [2]; 20mM carnosine versus normal medium): little difference in growth rate
- longevity (MRC-5 cells [2]; 20mM carnosine): very significantly increased longevity
- growth rate in the initial stage (MRC-5 cells [2]; 30mM carnosine versus normal medium): little difference in growth rate
- longevity (MRC-5 cells [2]; 30mM carnosine): very significantly increased longevity
- number of cells per flask (MRC-5 cells [2]; as the end of the culture lifespan approaches): significantly increases the number of cells per flask
- morphological features of senescence (MRC-5 cells [2]; carnosine medium, Figure 7 compared with Figure 6): delayed the normal morphological features of senescence
- time until cells died out (MRC-5 cells [2]; cells grown continuously in carnosine): 139 days
- growth rate ([3]; 10mM carnosine added to standard medium, versus control cultures): grew as rapidly as control cultures
- growth rate ([3]; 20mM carnosine added to standard medium, versus control cultures): grew as rapidly as control cultures
- growth rate ([3]; 30mM carnosine): some reduction in growth rate
- fibroblast morphology ([3]; 30mM carnosine): retained their characteristic fibroblast morphology
- time still growing ([3]; 30mM carnosine): > 500 days
- growth rate ([3]; 50mM carnosine): a great reduction
- fibroblast morphology ([3]; 50mM carnosine): retained their characteristic fibroblast morphology
- time still growing ([3]; 50mM carnosine): > 500 days
